By Kd is commonly meant the free concentration of one partner at which half of the binding sites on the other are occupied at equilibrium, for simple one-to-one binding.

This is an account of results in US20240116892A1, “HETEROCYCLIC AMIDE AND UREA COMPOUNDS AS JAK2 INHIBITORS” (Ajax Therapeutics, Inc., priority 2022, published 2024).

For this assay, the target named is JAK2 (JH1 domain-catalytic, Y1007F, Y1008F) kinase (Homo sapiens (Human), UniProt O60674, Y1007F/Y1008F). Nature of the assay: JAK2 JH1 Domain Binding Assay. To be noted: qPCR readout. In outline:
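Competitive binding format: test compound, DNA-tagged JAK2 JH1 (Y1007F/Y1008F; HEK293-expressed NFkB fusion) and ligand-coated magnetic beads incubated 1 h at room temperature. Kinase retained on beads released with 0.5 μmol/L non-biotinylated ligand, then measured by qPCR.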
On the technique in general: In qPCR the cycle at which signal appears reflects the starting amount.

Sequence of JAK2 (JH1 domain-catalytic, Y1007F, Y1008F) kinase (O60674 849-1124 Y1007F/Y1008F): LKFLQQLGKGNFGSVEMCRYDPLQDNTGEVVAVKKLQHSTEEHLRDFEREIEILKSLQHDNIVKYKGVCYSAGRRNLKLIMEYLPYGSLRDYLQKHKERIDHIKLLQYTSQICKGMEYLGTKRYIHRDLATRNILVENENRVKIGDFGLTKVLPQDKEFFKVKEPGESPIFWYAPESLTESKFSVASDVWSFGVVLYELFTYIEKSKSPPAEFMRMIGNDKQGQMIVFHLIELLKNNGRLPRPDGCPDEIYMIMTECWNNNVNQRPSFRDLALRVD

For the molecule `CN(C(=O)Nc1cc(C(F)(F)F)cn(C)c1=O)[C@H]1CCN(c2cnc3[nH]ncc3n2)C[C@H]1F` [Example I-83-a, 1-((3R,4S)-3-fluoro-1-(1H-pyrazolo[3,4-b]pyrazin-5-yl)piperidin-4-yl)-1-methyl-3-(1-methyl-2-oxo-5-(trifluoromethyl)-1,2-dihydropyridin-3-yl)urea], the Kd was under 10 nM. In the case of `CC1CN(C(=O)Nc2cc(C(F)(F)F)cn(C)c2=O)C2(CCN(c3cnc4[nH]cc(F)c4n3)CC2)C1` (single isomer, unassigned) [Example I-54-a] it was 50 to 1000 nM; in that of `COCc1cc2nc(N3CC[C@@H](N(C)C(=O)Nc4cc(C(F)(F)F)cn(C)c4=O)[C@@H](F)C3)cnc2[nH]1` [Example I-111-a, 1-((3S,4R)-3-fluoro-1-(6-(methoxymethyl)-5H-pyrrolo[2,3-b]pyrazin-2-yl)piperidin-4-yl)-1-methyl-3-(1-methyl-2-oxo-5-(trifluoromethyl)-1,2-dihydropyridin-3-yl)urea], under 10 nM. In the case of `CN(C(=O)Nc1cncc(C(F)(F)F)c1)[C@@H]1CCN(c2cnc3[nH]ncc3c2)CC1(F)F.CN(C(=O)Nc1cncc(C(F)(F)F)c1)[C@H]1CCN(c2cnc3[nH]ncc3c2)CC1(F)F` (mixture of isomers) [Example I-147-a, (R)-1-(3,3-difluoro-1-(1H-pyrazolo[3,4-b]pyridin-5-yl)piperidin-4-yl)-1-methyl-3-(5-(trifluoromethyl)pyridin-3-yl)urea and (S)-1-(3,3-difluoro-1-(1H-pyrazolo[3,4-b]pyridin-5-yl)piperidin-4-yl)-1-methyl-3-(5-(trifluoromethyl)pyridin-3-yl)urea] it was under 10 nM; in that of `CN(C(=O)Nc1cc(C(F)(F)F)cn(C)c1=O)[C@@H]1CCN(c2cnc3[nH]ncc3c2)CC1(C)C` (single isomer, unassigned) [Example I-45-b], 10 to 50 nM. `CN(C(=O)Nc1cc(C(F)(F)F)cn(C)c1=O)[C@H]1CCN(c2cnc3[nH]ccc3n2)CC1(F)F` (single isomer, unassigned) [Example I-27-b] showed a Kd of under 10 nM. In the case of `CNc1ccnc2c(N3CCC(N(C)C(=O)Nc4cc(C(F)(F)F)cn(C)c4=O)CC3)cnn12` [Example I-42, 1-methyl-3-(1-methyl-2-oxo-5-(trifluoromethyl)-1,2-dihydropyridin-3-yl)-1-(1-(7-(methylamino)pyrazolo[1,5-a]pyrimidin-3-yl)piperidin-4-yl)urea] it was under 10 nM; in that of “(S)-1-methyl-3-(1-methyl-2-oxo-5-(trifluoromethyl)-1,2-dihydropyridin-3-yl)-1-(3-(3-((tetrahydrofuran-3-yl)oxy)-1H-pyrazolo[3,4-b]pyridin-5-yl)bicyclo[1.1.1]pentan-1-yl)urea and (R)-1-methyl-3-(1-methyl-2-oxo-5-(trifluoromethyl)-1,2-dihydropyridin-3-yl)-1-(3-(3-((tetrahydrofuran-3-yl)oxy)-1H-pyrazolo[3,4-b]pyridin-5-yl)bicyclo[1.1.1]pentan-1-yl)urea [Example I-166-b]”, at least 5000 nM; in that of `CN(C(=O)Nc1cc(C(F)(F)F)cn(C)c1=O)C1CCN(c2cnc3cn[nH]c3c2)CC1` [Example I-73, 1-(1-(1H-pyrazolo[4,3-b]pyridin-6-yl)piperidin-4-yl)-1-methyl-3-(1-methyl-2-oxo-5-(trifluoromethyl)-1,2-dihydropyridin-3-yl)urea], under 10 nM. In the case of `CN(C(=O)Nc1cc(C(F)(F)F)cn(C)c1=O)[C@@H]1CCN(c2cnc3[nH]nc(OC4CCOCC4)c3c2)C[C@H]1F` [Example I-114-b, 1-((3R,4R)-3-fluoro-1-(3-((tetrahydro-2H-pyran-4-yl)oxy)-1H-pyrazolo[3,4-b]pyridin-5-yl)piperidin-4-yl)-1-methyl-3-(1-methyl-2-oxo-5-(trifluoromethyl)-1,2-dihydropyridin-3-yl)urea] it was under 10 nM.
